Where two headings read alike, the source gives them in different places.
Tests used:
[1] = target: T1, recombinant rat protein tyrosine phosphatase, PTP1B (rPTP1B) (Rattus norvegicus, UniProt P20417); type: biochemical; details: for % change from control at 10 μM: 10 μM compound
T1 sequence (P20417 1-432): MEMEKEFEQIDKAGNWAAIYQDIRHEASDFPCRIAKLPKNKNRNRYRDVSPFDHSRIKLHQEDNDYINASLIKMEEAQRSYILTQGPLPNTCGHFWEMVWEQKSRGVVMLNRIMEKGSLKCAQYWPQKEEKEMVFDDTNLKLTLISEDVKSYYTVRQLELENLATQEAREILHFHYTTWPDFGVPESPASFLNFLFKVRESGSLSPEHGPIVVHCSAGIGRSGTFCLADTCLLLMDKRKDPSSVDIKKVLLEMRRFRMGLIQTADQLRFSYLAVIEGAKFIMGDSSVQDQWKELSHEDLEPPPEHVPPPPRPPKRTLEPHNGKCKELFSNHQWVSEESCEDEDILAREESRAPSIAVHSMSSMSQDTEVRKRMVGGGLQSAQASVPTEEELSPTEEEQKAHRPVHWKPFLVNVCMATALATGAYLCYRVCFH

[2] = target: rat hepatic microsomal PTPases; details: rat hepatic microsomal PTPase; for IC50: dodecaphosphopeptide substrate 50 uM; for % Change from Control at 50 μM: 50 μM compound
[3] = target: T2, Human recombinant PTP1B (hPTP1B) (Homo sapiens, UniProt P18031); type: biochemical; details: hPTP1B
T2 construct: made in house
T2 sequence (P18031 1-435): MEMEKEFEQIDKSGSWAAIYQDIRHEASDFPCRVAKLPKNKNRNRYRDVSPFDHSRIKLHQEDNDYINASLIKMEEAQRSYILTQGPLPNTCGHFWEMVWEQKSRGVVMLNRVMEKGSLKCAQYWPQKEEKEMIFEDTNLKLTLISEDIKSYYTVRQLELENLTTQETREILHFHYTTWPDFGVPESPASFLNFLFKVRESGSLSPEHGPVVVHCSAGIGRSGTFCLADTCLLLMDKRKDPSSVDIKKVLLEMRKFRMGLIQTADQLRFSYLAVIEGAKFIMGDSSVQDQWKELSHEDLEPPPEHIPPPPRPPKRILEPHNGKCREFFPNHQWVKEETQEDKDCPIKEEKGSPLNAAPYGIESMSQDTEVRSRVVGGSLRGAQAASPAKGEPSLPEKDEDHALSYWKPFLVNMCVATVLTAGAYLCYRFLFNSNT

diabetic (ob/ob) mice = assay: Blood glucose lowering activity in diabetic (ob/ob) mice; type: in vivo; details: Mus musculus, po
Experimental: The procedures used and results obtained are briefly described below. […]
In each test procedure, mice [Male or female ob/ob (C57 B1/6J) and their lean litermates (ob/+ or +/+, Jackson Laboratories) ages 2 to 5 months (10 to 65 g)] of a similar age were randomized according to body weight into 4 groups of 10 mice. The mice were housed 5 per cage and are maintained on normal rodent chow with water ad libitum. Mice received test compound daily by gavage (suspended in 0.5 ml of 0.5% methyl cellulose); dissolved in the drinking water; or admixed in the diet. The dose of compounds given ranges from 2.5 to 200 mg/kg body weight/day. The dose is calculated based on the fed weekly body weight and is expressed as active moiety. […] Control mice received vehicle only.
On the morning of Day 4, 7 or 14 two drops of blood (approximetly 50 ul) were collected into sodium fluoride containing tubes either from the tail vein or after decapitation. For those studies in which the compound was administered daily by gavage the blood samples were collected two hours after compound administration. […]
Analysis of variance followed by Dunett's Comparison Test (one-tailed) are used to estimate the significant difference between the plasma glucose values from the control group and the individual compound treated groups (CMS SAS Release 5.18).

[4] = 96 h, plasma glucose on Day 4, 7 or 14, suffix a = no significant activity at this dose, read-out: % Change Glucose from Vehicle
[5] = suffix a = no significant activity at this dose, read-out: % Change Insulin from Vehicle

melting point	% change from control at 10 μM ([1]; rPTP1B)	IC50 [2]	IC50 [3]	IC50 ([1]; rPTP1B, read-out: IC50)	% Change from Control at 50 μM [2]	SMILES	change in vivo at 100 mg/kg (diabetic (ob/ob) mice; [4])	change in vivo at 100 mg/kg (diabetic (ob/ob) mice; [5])	IC50 [1]
175 to 177 °C	−34 (rPTP1B) %	40.4 µM	–	–	–	CCc1oc2ccc(Cl)cc2c1C(=O)c1cc(Br)c(OCC(=O)O)c(Br)c1 [Example 20, [2,6-dibromo-4-(5-chloro-2-ethyl-1-benzofuran-3-carbonyl)-phenoxy]-acetic acid]	–	–	–
92 to 94 °C	−78 (rPTP1B) %	31.2 µM	–	–	–	CCCCc1oc2ccccc2c1C(=O)c1cc(Br)c(OCC(=O)O)c(Br)c1 [Example 5, [2,6-Dibromo-4-(2-butyl-benzofuran-3-carbonyl)-phenoxy]-acetic acid]	-20.1%	-54.8%	–
144 to 146 °C	−97 (rPTP1B) %	28.4 µM	–	–	–	O=C(O)COc1c(I)cc(C(=O)c2c(Cc3ccccc3)oc3ccccc23)cc1I [Example 17, [4-(2-Benzyl-benzofuran-3-carbonyl)-2,6-diiodo-phenoxy]-acetic acid]	–	–	–
162 to 163 °C	−88 (rPTP1B) %	27.8 µM	–	–	–	O=C(O)COc1c(Br)cc(C(=O)c2c(Cc3ccccc3)sc3ccccc23)cc1Br [Example 12, [4-(2-Benzyl-benzo[b]thiophen-3-carbonyl)-2,6-dibromo-phenoxy]-acetic acid]	-30.7%	-60.7%	–
210 to 212 °C	−35 (rPTP1B) %	34.5 µM	–	–	–	O=C(c1cc(Br)c(OCP(=O)(O)O)c(Br)c1)c1c(Cc2ccccc2)sc2ccccc12 [Example 21, [4-(2-benzyl-benzo[b]thiophen-3-carbonyl)-2,6-dibromo-phenoxymethyl]-phosphonic acid]	–	–	–
–	−64 (rPTP1B) %	27.1 µM	–	–	–	CCc1oc2ccc(Cl)cc2c1C(=O)c1cc(Br)c(O)c(Br)c1 [Example 13, (5-Chloro-2-ethyl-benzofuran-3-yl)-(3,5-dibromo-4-hydroxy-phenyl)-methanone]	-12%	-74.5%	–
87 to 88 °C	−74 (rPTP1B) %	–	–	–	−34%	CCc1oc2ccccc2c1Cc1cc(Br)c(O)c(Br)c1 [Example 3, 2,6-Dibromo-4-(2-ethyl-benzofuran-3-yl-methyl)-phenol]	-6.2%	-56.6%	–
153 to 154 °C	–	20.5 µM	–	2.6 µM	–	O=C(c1cc(Br)c(O)c(Br)c1)c1c(CCc2ccccc2)oc2ccccc12 [Example 15, (3,5-Dibromo-4-hydroxy-phenyl)-(2-phenethyl-benzofuran-3-yl)-methanone]	-32.8%	-10.3%	–
153 to 154 °C	−99 (rPTP1B) %	22.7 µM	–	–	–	O=C(c1cc(I)c(O)c(I)c1)c1c(Cc2ccccc2)oc2ccccc12 [Example 9, (2-Benzyl-benzofuran-3-yl)-(4-hydroxy-3,5-diiodo-phenyl)-methanone]	-37.1%	-73.7%	–
163 to 164 °C	−53 (rPTP1B) %	26.3 µM	–	–	–	O=C(O)COc1c(Br)cc(C(=O)c2c(CCc3ccccc3)oc3ccccc23)cc1Br [Example 19, [2,6-Dibromo-4-(2-phenethyl-benzofuran-3-carbonyl)-phenoxy]-acetic acid]	–	–	–

Further lines, the molecule ahead of its results:

SMILES	melting point	% change from control at 10 μM ([1]; rPTP1B)	IC50 [2]	IC50 [3]	IC50 ([1]; rPTP1B, read-out: IC50)	% Change from Control at 50 μM [2]	change in vivo at 100 mg/kg (diabetic (ob/ob) mice; [4])	change in vivo at 100 mg/kg (diabetic (ob/ob) mice; [5])	IC50 [1]
CCCCc1oc2ccccc2c1C(=O)c1cc(I)c(O)c(I)c1 [Example 16, (2-Butyl-benzofuran-3-yl)-(4-hydroxy-3,5-diiodo-phenyl)-methanone]	–	–	15.3 µM	2.6 µM	0.19 µM	–	-51.8%	-73.7%	–
CCc1oc2ccccc2c1C(=O)c1cc(Br)c(OCC(=O)O)c(Br)c1 [Example 2, [2,6-dibromo-4-(2-ethyl-benzofuran-3-carbonyl)-phenoxy]-acetic acid]	135 to 137 °C	−30 (rPTP1B) %	–	–	–	−25%	-48.1%	-78.2%	–
CCCCc1oc2ccccc2c1C(=O)c1cc(Br)c(O)c(Br)c1 [Example 6, (2-Butyl-benzofuran-3-yl)-(3,5-dibromo-4-dihydroxy-phenyl)-methanone]	–	−90 (rPTP1B) %	24.2 µM	–	–	–	-40.6%	-70.4%	–
CCc1oc2ccccc2c1C(=O)c1cc(Br)c(O)c(Br)c1 [Example 1, (2-Ethyl-benzofuran-3-yl)-(3,5-dibromo-4-hydroxy-phenyl)-methanone]	–	–	70.1 µM	–	–	–	-44.6%	-89.5%	25.8 µM
CCCCc1oc2ccccc2c1C(=O)c1cc(Br)c(O[C@H](Cc2ccccc2)C(=O)O)c(Br)c1 [Example 22, (R)-2-[2,6-dibromo-4-(2-butyl-benzofuran-3-carbonyl)-phenoxy]-3-phenyl-propionic acid]	56 to 58 °C	–	–	1.15 µM	–	−77%	–	–	–
CCc1oc2ccccc2c1C(=O)c1cc(I)c(O)c(I)c1 [Example 18, (2-ethyl-benzofuran-3-yl)-(4-hydroxy-3,5-diiodo-phenyl)-methanone]	–	−60 (rPTP1B) %	30.7 µM	–	–	–	-39.6%	-83.6%	–
O=C(O)COc1c(Br)cc(C(=O)c2c(Cc3ccccc3)oc3ccccc23)cc1Br [Example 10, [4-(2-Benzyl-benzofuran-3-carbonyl)-2,6-dibromo-phenoxy]-acetic acid]	165 to 167 °C	−75 (rPTP1B) %	36 µM	–	–	–	-17.7%	-70%	–
CCc1oc2ccccc2c1C(=O)c1cc(Br)c(O)c(Br)c1O [Example 4, (3,5-Dibromo-2,4-dihydroxy-phenyl)-(2-ethyl-benzofuran-3-yl)-methanone]	150 to 151 °C	−64 (rPTP1B) %	34.3 µM	–	–	–	-19.8%	-61.8%	–
CCc1oc2ccccc2c1C(=O)c1c(Br)cc(Br)c(O)c1Br [Example 8, (2-Ethyl-benzofuran-3-yl)-(2,4,6-tribromo-3-hydroxy-phenyl)-methanone]	153 to 154 °C	−61 (rPTP1B) %	17.5 µM	–	–	–	-3.3%	-31.2%	–
O=C(c1cc(Br)c(O)c(Br)c1)c1c(Cc2ccccc2)oc2ccccc12 [Example 14, (2-Benzyl-benzofuran-3-yl)-(3,5-dibromo-4-hydroxy-phenyl)-methanone]	156 to 158 °C	−81 (rPTP1B) %	27.8 µM	–	–	–	-36.8%	-40.7%	–
CC1(COc2ccc(CC3SC(=O)NC3=O)cc2)CCCCC1 (stereo not shown) [Ciglitazone, 5-(4-(1-methylcyclohexylmethoxy)benzyl)-2,4-dione, reference compound]	–	–	–	–	–	–	-43%	-39%	–
